Values of other authors in US7662571B2, “Mitochondrial markers of ischemia” (Nourheart Inc., priority 2005, dated 2010).
No end group written: not given here.

Tests used:
FPR-like 2 (FPRL2) = biological target: T1, FPR-like 2 (FPRL2) (Homo sapiens, UniProt P25089); conditions: FPRL2, low-affinity receptor
T1 sequence (P25089 1-353): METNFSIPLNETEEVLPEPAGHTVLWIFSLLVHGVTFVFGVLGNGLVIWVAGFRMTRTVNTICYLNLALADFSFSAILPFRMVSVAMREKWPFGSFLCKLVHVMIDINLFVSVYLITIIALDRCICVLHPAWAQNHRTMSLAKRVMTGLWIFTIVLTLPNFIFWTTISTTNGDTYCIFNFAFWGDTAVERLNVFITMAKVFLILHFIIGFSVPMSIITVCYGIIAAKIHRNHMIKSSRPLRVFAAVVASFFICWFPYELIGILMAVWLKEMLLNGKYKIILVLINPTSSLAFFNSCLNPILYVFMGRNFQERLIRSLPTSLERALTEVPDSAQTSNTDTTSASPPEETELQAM

[1] = biological target: T2, FMLP receptor (68-kDa protein) (Homo sapiens, UniProt P21462)
T2 sequence (P21462 1-350): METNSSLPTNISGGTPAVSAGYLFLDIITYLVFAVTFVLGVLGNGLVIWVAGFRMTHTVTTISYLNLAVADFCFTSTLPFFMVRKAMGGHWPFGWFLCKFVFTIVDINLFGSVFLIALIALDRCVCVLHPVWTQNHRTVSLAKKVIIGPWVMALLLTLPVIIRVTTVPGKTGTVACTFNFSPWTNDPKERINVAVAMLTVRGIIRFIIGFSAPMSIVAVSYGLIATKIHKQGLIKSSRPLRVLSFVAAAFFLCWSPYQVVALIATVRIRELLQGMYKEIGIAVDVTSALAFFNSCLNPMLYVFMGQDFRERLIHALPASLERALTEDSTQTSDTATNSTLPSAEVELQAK

formyl-Met-Leu-Phe [fMLP]
concentration needed for receptor activation (FPR-like 2 (FPRL2)): only activated by high (micromolar) concentrations

LVVYPWT [spinorphin, Leu-Val-Val-Tyr-Pro-Trp-Thr]
chemotaxis of neutrophils caused by the low mwt chemoattractant (neutrophils): inhibited

RKAMGGHWPFGWFLCKFl (FMLP receptor derived peptide) [synthetic 17-aa peptide]
inhibition of ligand binding to the 68-kDa protein [1]: strongest inhibitor of ligand binding
